Assay results from ChEMBL document CHEMBL3885861, “Open TG-GATES”.

Organism: Rattus norvegicus
Assay: Open TG-GATES - Regimen: Single
Format: toxicity, organism-based, Sprague-Dawley
Parameters: regimen Single, gender Male, age 6 weeks
Conditions: in vivo, po, 15 mg/kg, route gavage, dose level Low; for APTT / Bas / Eos / Fbg / Hb / Ht / Lym / MCHC / MCV / Mono / Neu / PT / Plat / RBC / Ret / WBC: tissue Blood; for KIDNEY_L / KIDNEY_R / KIDNEY_TOTAL: tissue Kidney; for LIVER: tissue Liver; for ALP / ALT / AST / BUN / CRE / Ca / Cl / DBIL / GLC / IP / K / LDH / Na / PL / RALB / TBIL / TC / TG / TP / gamma-GTP: tissue Plasma

Compound: C1CCC(C(CC2CCCCN2)C2CCCCC2)CC1 (centres undefined) [PERHEXILINE]
- TERMINAL_BW (3 h): 217 g
- APTT (3 h): 20.2 s
- Bas (3 h): 0%
- Eos (3 h): 0.6%
- Fbg (3 h): 331 mg/dL
- Hb (3 h): 13.3 g/dL
- Ht (3 h): 39.6%
- Lym (3 h): 79.8%
- MCHC (3 h): 33.5%
- MCV (3 h): 63.8 fL
- Mono (3 h): 1.8%
- Neu (3 h): 16.8%
- PT (3 h): 15.6 s
- Plat (3 h): 121.9 x10_4/uL
- RBC (3 h): 620.8 x10_4/ul
- Ret (3 h): 7.8%
- WBC (3 h): 62.3 x10_2/uL
- KIDNEY_L (3 h): 1 g
- KIDNEY_R (3 h): 1 g
- KIDNEY_TOTAL (3 h): 1.9 g
- LIVER (3 h): 10.1 g
- ALP (3 h): 1601.6 IU/L
- ALT (3 h): 47 IU/L
- AST (3 h): 74 IU/L
- BUN (3 h): 13 mg/dL
- CRE (3 h): 0.1 mg/dL
- Ca (3 h): 11 mg/dL
- Cl (3 h): 105.6 meq/L
- DBIL (3 h): 0.002 mg/dL
- GLC (3 h): 181.2 mg/dL
- IP (3 h): 8.6 mg/dL
- K (3 h): 4 meq/L
- LDH (3 h): 183.8 IU/L
- Na (3 h): 140.8 meq/L
- PL (3 h): 149.4 mg/dL
- RALB (3 h): 3.2 g/dL
- TBIL (3 h): 0.022 mg/dL
- TC (3 h): 81.2 mg/dL
- TG (3 h): 90.2 mg/dL
- TP (3 h): 5.7 g/dL
- gamma-GTP (3 h): 0.6 IU/L
- TERMINAL_BW (6 h): 212 g
- APTT (6 h): 20.7 s
- Bas (6 h): 0%
- Eos (6 h): 0.8%
- Fbg (6 h): 320.2 mg/dL
- Hb (6 h): 13.1 g/dL
- Ht (6 h): 39.6%
- Lym (6 h): 79.6%
- MCHC (6 h): 33.1%
- MCV (6 h): 64.4 fL
- Mono (6 h): 2%
- Neu (6 h): 16.4%
- PT (6 h): 15.6 s
- Plat (6 h): 134.6 x10_4/uL
- RBC (6 h): 615.4 x10_4/ul
- Ret (6 h): 7.9%
- WBC (6 h): 77.4 x10_2/uL
- KIDNEY_L (6 h): 1 g
- KIDNEY_R (6 h): 1 g
- KIDNEY_TOTAL (6 h): 2 g
- LIVER (6 h): 9.5 g
- ALP (6 h): 1590.2 IU/L
- ALT (6 h): 39 IU/L
- AST (6 h): 70 IU/L
- BUN (6 h): 10.6 mg/dL
- CRE (6 h): 0.1 mg/dL
- Ca (6 h): 10.9 mg/dL
- Cl (6 h): 105.8 meq/L
- DBIL (6 h): 0 mg/dL
- GLC (6 h): 170.4 mg/dL
- IP (6 h): 9.5 mg/dL
- K (6 h): 4.4 meq/L
- LDH (6 h): 209.6 IU/L
- Na (6 h): 139.2 meq/L
- PL (6 h): 134.6 mg/dL
- RALB (6 h): 3.1 g/dL
- TBIL (6 h): 0.018 mg/dL
- TC (6 h): 77.2 mg/dL
- TG (6 h): 73.6 mg/dL
- TP (6 h): 5.6 g/dL
- gamma-GTP (6 h): 1 IU/L
- TERMINAL_BW (9 h): 204.6 g
- APTT (9 h): 21.4 s
- Bas (9 h): 0%
- Eos (9 h): 0.8%
- Fbg (9 h): 303.4 mg/dL
- Hb (9 h): 12.8 g/dL
- Ht (9 h): 38.4%
- Lym (9 h): 76.2%
- MCHC (9 h): 33.5%
- MCV (9 h): 62.1 fL
- Mono (9 h): 1.6%
- Neu (9 h): 21%
- PT (9 h): 15.5 s
- Plat (9 h): 127.1 x10_4/uL
- RBC (9 h): 619.8 x10_4/ul
- Ret (9 h): 7%
- WBC (9 h): 67.3 x10_2/uL
- KIDNEY_L (9 h): 1 g
- KIDNEY_R (9 h): 1 g
- KIDNEY_TOTAL (9 h): 2 g
- LIVER (9 h): 8.9 g
- ALP (9 h): 1312.6 IU/L
- ALT (9 h): 38 IU/L
- AST (9 h): 65.8 IU/L
- BUN (9 h): 10.2 mg/dL
- CRE (9 h): 0.1 mg/dL
- Ca (9 h): 11 mg/dL
- Cl (9 h): 105.6 meq/L
- DBIL (9 h): 0.004 mg/dL
- GLC (9 h): 172 mg/dL
- IP (9 h): 9.4 mg/dL
- K (9 h): 3.9 meq/L
- LDH (9 h): 186.2 IU/L
- Na (9 h): 139.6 meq/L
- PL (9 h): 124.4 mg/dL
- RALB (9 h): 3.1 g/dL
- TBIL (9 h): 0.014 mg/dL
- TC (9 h): 68.8 mg/dL
- TG (9 h): 49.2 mg/dL
- TP (9 h): 5.7 g/dL
- gamma-GTP (9 h): 1 IU/L
- TERMINAL_BW (24 h): 216.9 g
- APTT (24 h): 20.4 s
- Bas (24 h): 0%
- Eos (24 h): 0.8%
- Fbg (24 h): 319.6 mg/dL
- Hb (24 h): 13.3 g/dL
- Ht (24 h): 39.1%
- Lym (24 h): 77.8%
- MCHC (24 h): 34.1%
- MCV (24 h): 63.5 fL
- Mono (24 h): 1.8%
- Neu (24 h): 18.6%
- PT (24 h): 15.8 s
- Plat (24 h): 130.2 x10_4/uL
- RBC (24 h): 616.8 x10_4/ul
- Ret (24 h): 6.2%
- WBC (24 h): 108.7 x10_2/uL
- KIDNEY_L (24 h): 1 g
- KIDNEY_R (24 h): 1 g
- KIDNEY_TOTAL (24 h): 1.9 g
- LIVER (24 h): 10 g
- ALP (24 h): 1593 IU/L
- ALT (24 h): 47 IU/L
- AST (24 h): 70.6 IU/L
- BUN (24 h): 17 mg/dL
- CRE (24 h): 0.1 mg/dL
- Ca (24 h): 10.8 mg/dL
- Cl (24 h): 106.8 meq/L
- DBIL (24 h): 0 mg/dL
- GLC (24 h): 185.6 mg/dL
- IP (24 h): 7.1 mg/dL
- K (24 h): 4.1 meq/L
- LDH (24 h): 212.8 IU/L
- Na (24 h): 142 meq/L
- PL (24 h): 158.8 mg/dL
- RALB (24 h): 3.2 g/dL
- TBIL (24 h): 0.012 mg/dL
- TC (24 h): 81.8 mg/dL
- TG (24 h): 122 mg/dL
- TP (24 h): 5.7 g/dL
- gamma-GTP (24 h): 1 IU/L
